In US20240228493A1, “LRRK2 INHIBITORS AND USES THEREOF” (NEURON23, ICN., priority 2022, published 2024):

Experiments:
Caco-2 cells = experiment: Caco-2 bidirectional permeability; format: in vitro ADME; conditions: for Caco-2 ER: Efflux Ratio=Papp(BA)/Papp(AB); for Caco-2 A2B (10^−6 cm/s): apical to basolateral; for Caco-2 A2B (10^−6 cm/s) / Caco-2 B2A (10^−6 cm/s): 2 hours, pH 7.4; for Caco-2 B2A (10^−6 cm/s): basolateral to apical
How it was run: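 Caco-2 monolayers were grown 21–28 days on PET inserts and run in duplicate in HBSS with 10 mM HEPES, pH 7.4. Test compound was dosed bidirectionally at […] for 2 h at 37 °C; quantification was by LC-MS/MS. Papp and efflux ratio (B-A/A-B) were calculated, with lucifer yellow monolayer integrity checks.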

human hepatocyte = experiment: Human hepatocyte stability, predicted hepatic clearance (h-Hept CL predict); format: in vitro ADME; conditions: human hepatocytes, 0.5×10^6 cells/mL, 1 μM, values without asterisk
How it was run: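 Cryopreserved human hepatocytes, 0.5×10^6 viable cells/mL in William's E/GlutaMAX, incubated with compound at 1 μM final, duplicates. Sampling at 0-120 min, LC/MS/MS parent loss gives t1/2, converted to CLint and scaled to predicted hepatic clearance (well-stirred model, fub assumed 1).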

[1] = target: T1, wt human LRRK2, catalytic site (Homo sapiens, UniProt Q5S007); experiment: TR-FRET LanthaScreen Tb Kinase Activity Assay, LRRK2 inhibition; format: biochemical; conditions: 2 nM wt human LRRK2, 400 nM peptide, 38 μM ATP
T1 construct: wt human LRRK2, catalytic site, catalytic site (ThermoFisher/USA); purchased ThermoFisher
How it was run: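 Fluorescein-ERM (LRRKtide) peptide (400 nM) phosphorylated by 2 nM wt human LRRK2 catalytic site with 38 μM ATP in 1× Kinase Buffer A, 120 min at room temperature after 15 min compound–kinase preincubation. EDTA plus Tb-anti-pLRRKtide antibody added, read after 60 min; inhibition from TR-FRET emission ratios.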

T1 sequence (Q5S007 1879-2138 limits assumed): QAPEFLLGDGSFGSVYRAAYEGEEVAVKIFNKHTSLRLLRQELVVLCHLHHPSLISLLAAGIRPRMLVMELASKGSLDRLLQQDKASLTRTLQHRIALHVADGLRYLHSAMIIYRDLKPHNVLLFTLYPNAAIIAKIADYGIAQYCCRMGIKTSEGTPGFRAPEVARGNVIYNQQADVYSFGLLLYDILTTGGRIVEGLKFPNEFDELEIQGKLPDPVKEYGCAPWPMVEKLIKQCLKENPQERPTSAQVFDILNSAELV

Row | SMILES | Caco-2 ER (Caco-2 cells) | Caco-2 A2B (10^−6 cm/s) (Caco-2 cells) | Caco-2 B2A (10^−6 cm/s) (Caco-2 cells) | hHep Cl (mL/min/kg) (human hepatocyte) | IC50 [1]
1 | Cc1n[nH]c2c1N=C(c1c(F)cccc1F)Nc1c-2cc(N2CCC(C)(O)CC2)nc1C [Example 41, 1-(5-(2,6-difluorophenyl)-3,7-dimethyl-1,6-dihydropyrazolo[4,3-d]pyrido[4,3-f][1,3]diazepin-9-yl)-4-methylpiperidin-4-ol] | L (L (Likely)”: ER≥2.5) | M (M (Moderate permeability)”: 1≤A2B (B2A)≤5) | H (H (High permeability)”: A2B (B2A)>5) | I (I (Intermediate Cl)”: 6.3≤Hep Cl (mL/min/kg)≤14.7) | 1 to 100 nM
2 | Cn1cc(-c2cc3c(cn2)NC(c2c(F)cccc2F)=Nc2c(Cl)n[nH]c2-3)cn1 [Example 54, 3-chloro-5-(2,6-difluorophenyl)-9-(1-methyl-1H-pyrazol-4-yl)-1,6-dihydropyrazolo[4,3-d]pyrido[4,3-f][1,3]diazepine] | L (L (Likely)”: ER≥2.5) | M (M (Moderate permeability)”: 1≤A2B (B2A)≤5) | H (H (High permeability)”: A2B (B2A)>5) | I (I (Intermediate Cl)”: 6.3≤Hep Cl (mL/min/kg)≤14.7) | < 1 nM
